≈ marks a conversion by molar mass, not a printed value. Read-outs that look alike come from different tables or passages of the source.

The nature of series [1]: Solubility of DHEA in ethanol and MCT oil. It counts as physicochemical. An excerpt:
An alcohol-soluble species is a species that is insoluble in water and has a greater solubility in ethanol than in medium chain triglyceride (MCT) oils. […] Alcohol-soluble species are preferably pharmacologically active, more preferably are a drug or a supplement, and neither include nor are water. Thus, liquids and solids may exist that technically are soluble in alcohol, but because they also are soluble in water or more or equivalently soluble in MCT oils than in ethanol are not “alcohol-soluble species”.
Solubilized means that the alcohol-soluble species to be delivered is in the solution of the droplet. […] Thus, if either average particle diameters greater than 200 nm or precipitated crystals visible to the naked eye form, the alcohol-soluble species is not solubilized in the solution of the droplet. If an alcohol-soluble species is not solubilized in the solution, it is insoluble in the solution. In many respects, solubility may be thought of as a concentration dependent continuum. For example, the following descriptive terms may be used to express solubility of a solute in a solvent (grams solid/mL of solvent) at 25 degrees Celsius: […]

For series [2], the system named is peri- and postmenopausal subjects. The experiment in a line: Combination therapy of MOIW microemulsion with progesterone, menopausal symptoms. Format: in vivo, human. As to conditions: most perimenopausal subjects, administered daily in combination with MOIW microemulsion. On the procedure:
Dosing for this combination therapy includes use of the present MOIW microemulsion as previously described with the addition of progesterone. For use in the alleviation of menopausal symptoms, from 5 mg to 18 mg of progesterone is preferably administered daily, with 8 mg to 16 mg of progesterone providing a therapeutically effective dose for postmenopausal subjects and with 8 mg to 10 mg of progesterone providing a therapeutically effective dose for perimenopausal subjects. A therapeutically effective dose for most perimenopausal subjects was determined to be approximately 8 mg.
A preferred dosing for this combination therapy includes intra-oral administration of the MOIW microemulsion ante meridiem with topical administration of the thickened MOIW post meridiem. For perimenopausal subjects using intermittent dosing of the MOIW microemulsion, the same intermittent dosing is also preferred for the thickened MOIW microemulsion progesterone topical.

Regarding `C[C@]12CC[C@H](O)CC1=CC[C@@H]1[C@@H]2CC[C@]2(C)C(=O)CC[C@@H]12` [DHEA, dehydroepiandrosterone (3-beta-hydroxyandrosteron-5-en-17-one)], the solubility in series [1] (ethanol, organic solvent or mixture, read-out: solubility in ethanol) is around 150 mg/mL (≈ 520 mM); in series [1] (medium chain triglyceride (MCT) oil, oil or lipid, MCT oil, read-out: solubility in MCT oil) it was around 10 mg/mL (≈ 34.7 mM). As for `CC(=O)[C@H]1CC[C@H]2[C@@H]3CCC4=CC(=O)CC[C@]4(C)[C@H]3CC[C@]12C` [progesterone], the “therapeutically effective dose of progesterone” value in series [2] is recorded as “approximately 8 mg”.

The record behind these values is patent publication US12527804B2, “Microemulsion delivery systems for alcohol-soluble species including DHEA, pregnenolone, and chrysin for reducing menopausal symptoms” (Quicksilver Scientific, Inc., priority 2021, dated 2026).
